Experimental data reported in US20130267544A1, “Use of LP-PLA2 Inhibitors in the Treatment and Prevention of Eye Diseases” (priority 2010, published 2013).
“Also recorded” adds a separate entry of the source.

Legend:
[1] = test system: DMHC pigs (Abeta42 in cerebral cortex); experiment: Abeta42 amount and distribution in cerebral cortex of DMHC pig brain; format: in vivo; settings: 10 mg/kg/day for 24 weeks
Protocol: (§1) Yorkshire domestic farm pigs (˜25-35 kg; Archer Farms) were induced for diabetes with a single intravenous injection of 125 mg/kg streptozotocin (Mohler et al., 2008). Blood glucose and cholesterol were closely monitored. Three days after diabetes induction, a hyperlipidemic diet was used to achieve hypercholesterolemia with serum cholesterol concentrations clamped between 400 and 800 mg/dl. Because pigs have a variable serum cholesterol response to a high cholesterol diet, cholesterol concentrations were checked every two months. […]
(§2) Specimens from the brains of 29 pigs, included 3 untreated controls; 13 DMHC and 13 DMHC treated with Darapladib (Rx), were embedded in paraffin wax. Each brain specimen was serially sectioned, and the first section representing each sample was stained with Hematoxylin and Eosin (H+E) which permitted cortical from non-cortical regions based on differential staining to be determined. Full (large) face tissue blocks were used throughout this study in an effort to maximize the amount of tissue analyzed so as to favor subsequent quantification. The total areas (in sq. mm) of cortical and non-cortical brain tissue in each section were measured in H+E− stained sections using computer-assisted image analysis and Image Pro Plus software. […]

DM/HC pigs = experiment: Behavioural observation of DM/HC pigs; format: in vivo, pig; settings: 10 mg/kg/day, vs DM/HC control animals
Protocol: Yorkshire domestic farm pigs (˜25-35 kg; Archer Farms) were induced for diabetes with a single intravenous injection of 125 mg/kg streptozotocin (Mohler et al., 2008). Blood glucose and cholesterol were closely monitored. Three days after diabetes induction, a hyperlipidemic diet was used to achieve hypercholesterolemia with serum cholesterol concentrations clamped between 400 and 800 mg/dl. Because pigs have a variable serum cholesterol response to a high cholesterol diet, cholesterol concentrations were checked every two months. One month after DMHC induction, pigs were randomly assigned into either a control group or a treatment group receiving 10 mg/kg/d orally of the selective Lp-PLA2 inhibitor Darapladib (GlaxoSmithKline). Pigs were sacrificed after 28 weeks after induction (that is, 24 weeks after initiation of treatment). At the time of completion of the study, there were 17 pigs in the control group and 20 in the Darapladib-treated group, as three pigs in the control group were excluded from analysis because of persistently elevated cholesterol levels. […] The specific experiment was published (Wilensky et al., 2008) but no vascular leak data was presented in that publication.

[2] = test system: DMHC pigs (blood-brain barrier); experiment: IgG leak from brain blood vessels (BBB permeability) in diabetic/hypercholesterolemic pigs; format: in vivo, pig; settings: 10 mg/kg/day orally for 24 weeks
Protocol: as §1, §2

rat Lp-PLA2 enzyme = settings: compared with Lp-PLA2 inhibitor '495
Lp-PLA2 = Lp-PLA2 (Oryctolagus cuniculus, UniProt G1SE06); settings: rabbits on cholesterol/copper diet, 10 mg/kg daily s.c. from day 1-72
Lp-PLA2, sequence (G1SE06 22-423): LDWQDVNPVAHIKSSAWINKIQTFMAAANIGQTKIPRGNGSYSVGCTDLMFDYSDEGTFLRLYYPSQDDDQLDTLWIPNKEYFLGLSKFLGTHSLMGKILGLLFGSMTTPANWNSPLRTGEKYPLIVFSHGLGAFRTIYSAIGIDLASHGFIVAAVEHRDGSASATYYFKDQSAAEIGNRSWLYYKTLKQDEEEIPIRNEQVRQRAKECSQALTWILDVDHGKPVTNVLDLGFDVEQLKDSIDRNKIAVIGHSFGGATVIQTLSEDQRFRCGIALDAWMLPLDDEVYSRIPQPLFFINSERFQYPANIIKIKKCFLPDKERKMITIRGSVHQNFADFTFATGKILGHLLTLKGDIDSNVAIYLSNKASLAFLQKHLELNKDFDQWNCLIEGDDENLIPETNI
Protocol: 3-4 month SPF male New Zealand White rabbits were purchased from Covance (Denver, Pa.), individually housed and had ad libitum access to rabbit chow and water on a 12/12 h light/dark cycle. Experiments were repeated twice with animals arriving 3 weeks apart. Rabbits were randomly assigned to five treatment groups with a sample size of 8 animals per group. 32 Rabbits were placed on cholesterol/copper diet and 8 rabbits fed normal chow. Cholesterol/copper diet consisted of 160 g per day of commercially produced diet (Purina Mills High Fibre Diet) supplemented or not with 2% cholesterol. Copper sulphate (0.12 mg/l) was added to drinking water of rabbits assigned the cholesterol supplemented diet.
Animals were weighed and drug or vehicle administration delivered at 3 ml/kg to affect a 10 mg/kg dose by subcutaneous injection in the neck fold.
Six groups of animals consisting of 8 animals were assigned to the following treatment groups. Groups 1-5 were maintained on the cholesterol supplemented diet with copper sulphate in the drinking water.
Lp-PLA2 activity was measured in plasma samples collected at days 1, 29, 32 and 72 using proprietary GSK techniques.

[3] = test system: STZ-induced diabetic SD rats; settings: first study, 10 mg/kg/d i.p. from day 4
Protocol: Male SD rats, 6 weeks of age and weighing 180-200 g, were used in this study; the rats had free access to food and water and were maintained in cages in an environmentally controlled room with a 12 hour light-dark cycle. Diabetes was induced by following dosing of animals with streptozotocin (50 mg/kg/day dosed i.p. for each of the first 3 days of the protocol) in 10 mM sodium citrate-buffer pH 4.6. […] Animals which maintained an elevated blood glucose level of over 9 mM were deemed diabetic.
The retinal images were scanned by a commercially available Fourier-domain OCT (RTVue-100; version 2.1; Optovue, Inc., California, USA). Super-luminescent diode light source with a central wavelength of 840 nm and a full bandwidth of 50 nm was adapted to the OCT. The retinal thickness was accessed by the automatic software of RTVue scanner with manual adjusting. The retinal thickness was defined from layer of retinal pigment eitheluim (RPE) to retinal ganglion cell layer (GCL).
Two separate studies were conducted. Retinal images were taken on experimental day 4, 10, 13, 17, 22, 28 and 31 for the second study and day 0, 4, 7, 10, 14 and 18 for the first study. Animals were anesthetized by inhalation of 5% isoflourane and pupils were diluted with 1% tropicamide and 1% phenylephrine. Prior to OCT analysis animals were fixed on a support frame and the eye to be imaged positioned to align with the center of the scan beam perpendicular to the fundus. […] After imaging, the animals were recovered and returned to cages. Retinal thickness from six time points of OCT measurement were analyzed by repeated measures analysis of variance (ANOVA) using Prism software. […] All data were expressed as mean value±SEM.

[4] = test system: rat brain microvascular endothelial cells co-cultured with rat brain astrocytes; experiment: Transendothelial electrical resistance of BMEC monolayers; format: cell-based; settings: after addition of lysoPC to endothelial monolayers
Protocol: (§3) Three-week-old Sprague-Dawley (SD) rats were sacrificed by cervical dislocation. After white matter, meninges and macroscopic pial vessels were removed, the gray matter was thoroughly triturated in ice-cold Dulbecco's modified Eagle's medium (DMEM). The tissue was then digested in DMEM (7 ml for 5 rat brains) containing collagenease II (1 mg/ml) and DNase I (39 U/ml) at 37° C. for 1 h with shaking speed of 130 rpm. The digested tissue was diluted with the same volume of DMEM and centrifuged at 1000 g for 8 min at 4° C. The cell pellet was re-suspended in a 20% bovine serum albumin (BSA)-DMEM solution and centrifuged at 1000 g for 20 min at 4° C. The microvessels obtained in the pellet were further digested with collagenase-dispase (1 mg/mL) and DNase I (39 U/ml) in DMEM (3 ml for 5 rat brains) for 0.5 h at 37° C. […] After 2 days of puromycin treatment, the culture medium was replaced with supplemented EBM®2 for another 2 days of maintenance before they were ready for construction of co-cultured model. […]
(§4) The astrocytes suspended in 10% FBS-DMEM were seeded on to Poly-L-lysine coated 24-well culture plate at passage between 1 and 4 at a density of 1.5×10^4/cm^2. […] Transendothelial electrical resistance (TEER) of the monolayers were determined everyday using Millicell-ERS (Millipore, Bedford, Mass.) and when the TEER >150 Ω·cm^2, the monolayer was ready for transport experiment. […]

[5] = test system: rat brain microvascular endothelial cells co-cultured with rat brain astrocytes; experiment: Permeability of Lucifer yellow in BMEC-astrocyte co-cultures; format: cell-based; settings: lysoPC 0.3-10 ug/mL added to apical side, 90 min
Protocol: as §3, §4

CCN(CC)CCN(Cc1ccc(-c2ccc(C(F)(F)F)cc2)cc1)C(=O)Cn1c(SCc2ccc(F)cc2)nc(=O)c2c1CCC2 [Darapladib, N-[2-(diethylamino)ethyl]-2-[[(4-fluorophenyl)methyl]thio]-4,5,6,7-tetrahydro-4-oxo-N-[[4′-(trifluoromethyl)[1,1′-biphenyl]-4-yl]methyl]-1H-cyclopentapyrimidine-1-acetamide]
total amount of Abeta42 (Abeta42 load) in the cerebral cortex [1]: reduced amyloid deposition; also recorded: reduced the total amount of Abeta42
density of Abeta42-positive neurons in cerebral cortex ([1]; entire brain): reduction in the number (density) of Abeta42 peptide positive neurones; also recorded: levels comparable to controls
general wellness (activity and alertness) (DM/HC pigs): general wellness effect (increased activity and alertness)
density of arteriolar leaks in the cortex (number of leaking arterioles per sq mm) [2]: reduced somewhat
extent of vascular (BBB) leaks ([2]; 10 mg/kg/day): effective at reducing the extent of leaks in all vessel types; also recorded: highly efficacious effect in reducing the permeability of the BBB; also recorded: somewhat reduced

CCN1CCC(N(Cc2ccc(-c3ccc(Cl)cc3)cc2)C(=O)Cn2c(CCc3cccc(F)c3F)nc(=O)c3ccccc32)CC1.O=C(O)C(O)C(O)C(=O)O [Lp-PLA2 inhibitor '859, N-(1-ethylpiperidin-4-yl)-2-(2-(2-(2,3-difluorophenyl)-ethyl)-4-oxo-4H-quninazolin-1-yl)-N-(4′-chloro-biphenyl-4-ylmethyl)acetamide bitartrate]
potency as inhibitor of rat Lp-PLA2 enzyme, relative (rat Lp-PLA2 enzyme): significantly less potent inhibitor
plasma Lp-PLA2 activity (Lp-PLA2): significantly lower levels of Lp-PLA2 activity
STZ-induced retinal thinning (neuroretinal thickness by OCT) [3]: not statistically significantly different from vehicle only treated animals

lysophosphatidylcholine [lysoPC]
transendothelial electrical resistance (TEER) [4]: reduction in the transendothelial electrical resistance
transport of Lucifer yellow across endothelial monolayer [5]: dose-dependent reduction in the transport of Lucifer yellow
